Data on 24 molecules can be found in the supplement of paper PMC5412046.

Each structure is given as a SMILES string.

The subject of experiment [1] is SB.mhdgc-1. As to the kind of experiment: area under the dose-response curve of % viability (trapezoidal, 11 doses) (% viability x log10 concentration); higher = less cytotoxic. The following applies: SB.mhdgc-1 (hereditary c.1380delA CDH1 gastric cancer). An outline of the steps:
(§1)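 Viability values are normalised to DMSO and given either at the highest concentration or as trapezoidal area under the curve. The assay used 500 hereditary or sporadic patient-derived gastric cancer cells in 5 μL medium per 1536 well, dosed by pintool with 23 nL of compound in DMSO at 11 threefold-diluted concentrations. CellTiter-Glo was added 48 h later for 30 min at room temperature, followed by luminescence reading on a ViewLux.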

Experiment [2] has as its system SB.msgc-1. The experiment is described as above. To be noted: SB.msgc-1 (sporadic gastric cancer). An outline of the steps:
as §1

In experiment [3] the test system is SB.mhdgc-1. Kind of experiment: viability at highest tested concentration (MAXR) relative to DMSO; higher = less cytotoxic. To be noted: SB.mhdgc-1 (hereditary c.1380delA CDH1 gastric cancer). The method, boiled down: as §1
In experiment [4] the test system is SB.msgc-1. Described as above. The following applies: SB.msgc-1 (sporadic gastric cancer). An outline of the steps:
as §1

Broadly, the viability is a read-out of living cells in per cent, often relative to untreated cells.

Take `O=P(O)(O)C(O)(Cc1cccnc1)P(=O)(O)[O][Na]` (stereo unspecified) [Risedronate sodium] (top concentration 46.0829 µM): the results for the “area under the dose-response curve” value in the experiment on SB.mhdgc-1 [1] and with SB.msgc-1 [2] were 506 and 559, respectively. In addition, the viability in the experiment on SB.mhdgc-1 [3] was found to be 112%; with SB.msgc-1 [4], 107%.
With `CNC[C@H](O)[C@@H](O)[C@H](O)[C@H](O)CO` [Meglumine] (top concentration 46.0829 µM), the figures for the “area under the dose-response curve” value in the experiment with SB.mhdgc-1 [1] and in the experiment with SB.msgc-1 [2] were 556 and 563, respectively. Besides, the viability in the experiment on SB.mhdgc-1 [3] came to 111%; with SB.msgc-1 [4], 118%.
For `CC(C)n1cnc2c(NCCc3ccc(O)cc3)nc(-c3csc4ccccc34)nc21` [StemRegenin 1] (top concentration 46.0829 µM), in that order: 298, 413, -0.348% and 2.16%.
For the molecule `O=[N+]([O-])c1ncc[nH]1` [Azomycin] (top concentration 46.0829 µM), the “area under the dose-response curve” value with SB.mhdgc-1 [1] amounted to 235; in the experiment on SB.msgc-1 [2], 412. Further, the results for the viability in the experiment with SB.mhdgc-1 [3] and in the experiment with SB.msgc-1 [4] were 80.9% and 67.2%, respectively.
For `c1ccc(CNc2nc(NCc3ccccc3)c3ccccc3n2)cc1` (top concentration 46.0829 µM), the “area under the dose-response curve” value stood at 448 with SB.mhdgc-1 [1] and 456 with SB.msgc-1 [2]. In addition, the viability in the experiment with SB.mhdgc-1 [3] worked out at 0.751%; in the experiment with SB.msgc-1 [4], 19%.
For `OC(CCN1CCCCC1)(C2CC\3CC2\C=C3)C4=CC=CC=C4` (stereo unspecified) [Biperiden] (top concentration 46.0829 µM), the “area under the dose-response curve” value in the experiment on SB.mhdgc-1 [1] worked out at 575; with SB.msgc-1 [2], 576. For the same molecule, the values for the viability in the experiment with SB.mhdgc-1 [3] and in the experiment on SB.msgc-1 [4] were 95.5% and 119%, respectively.
For `O=c1[nH]cnc2c1ncn2[C@H]1CC[C@@H](CO)O1` [Didanosine] (top concentration 46.0829 µM), in that order: 564, 470, 3.57% and 61.5%.
As to `N[C@@H](Cc1cc(I)c(Oc2cc(I)c(O)c(I)c2)c(I)c1)C(=O)O` [L-Thyroxine] (top concentration 46.0829 µM), the “area under the dose-response curve” value with SB.mhdgc-1 [1] worked out at 467; in the experiment on SB.msgc-1 [2] it was 555. Also, the figures for the viability with SB.mhdgc-1 [3] and in the experiment on SB.msgc-1 [4] were 68.1% and 98.7%, respectively.
Regarding `CC(C)(C(=O)NCC(F)(F)C(F)(F)F)C(=O)N[C@@H]1C(=O)Nc2ccccc2-c2ccccc21` (top concentration 46.0829 µM), the “area under the dose-response curve” value was 408 in the experiment with SB.mhdgc-1 [1] and 452 with SB.msgc-1 [2]. For the same molecule, the viability in the experiment with SB.mhdgc-1 [3] came out at 31.8%; with SB.msgc-1 [4] it was 59.3%.
For `CCC1(c2ccc(N)cc2)CCC(=O)NC1=O` (stereo unspecified) [Aminoglutethimide] (top concentration 46.0829 µM), in that order: 537, 547, 110% and 116%.
Consider `Clc1ccc2c(N3CCN(CCCN4CCN(c5ccnc6cc(Cl)ccc56)CC4)CC3)ccnc2c1` [Piperaquine] (top concentration 23.0415 µM), for which the “area under the dose-response curve” value in the experiment with SB.mhdgc-1 [1] turned out to be 507; with SB.msgc-1 [2] it was 534. In addition, the viability with SB.mhdgc-1 [3] turned out to be 78.2%; in the experiment with SB.msgc-1 [4], 97.8%.
For `CC(NC1=CC=CC=C1)C\2=C\C(=C/N3C(=O)\C=C(/N=C23)N4CCOCC4)C` (stereo unspecified) [TGX-221] (top concentration 46.0829 µM), in that order: 324, 428, 34.9% and 47.8%.
For the molecule `CN(c1ncccc1CNc1nc(Nc2ccc3c(c2)CC(=O)N3)ncc1C(F)(F)F)[S+](C)(=O)[O-]` (top concentration 46.0829 µM), the “area under the dose-response curve” value with SB.mhdgc-1 [1] worked out at 450; with SB.msgc-1 [2] it was 521. Further, the viability in the experiment on SB.mhdgc-1 [3] worked out at 64.1%; in the experiment on SB.msgc-1 [4], 36%.
Consider `COC1=CC=CC2=C1C(=NC(=N2)C3=CC=CS3)NN4C(=O)\C=C(C)/C4=O` (top concentration 46.0829 µM), for which the “area under the dose-response curve” value with SB.mhdgc-1 [1] came out at 404; in the experiment on SB.msgc-1 [2], 413. Also, the viability was determined as 2.71% in the experiment with SB.mhdgc-1 [3] and 2.95% in the experiment with SB.msgc-1 [4].
As to `O=C([O-])C(O)Cc1ccc(O)c(O)c1` (stereo unspecified) [Sodium Danshensu] (top concentration 46.0829 µM), the “area under the dose-response curve” value in the experiment with SB.mhdgc-1 [1] is 573; in the experiment on SB.msgc-1 [2], 509. The viability in the experiment with SB.mhdgc-1 [3] was determined as 96.8%; in the experiment on SB.msgc-1 [4], 81.5%.
With `C=C1/C(=C\C=C2/CCC[C@]3(C)[C@@H]([C@H](C)/C=C/[C@H](C)C(C)C)CC[C@@H]23)C[C@@H](O)C[C@@H]1O` [Doxercalciferol] (top concentration 46.0829 µM), the “area under the dose-response curve” value in the experiment with SB.mhdgc-1 [1] was determined as 369; in the experiment with SB.msgc-1 [2], 340. The viability is 18.7% in the experiment with SB.mhdgc-1 [3] and 3.9% in the experiment on SB.msgc-1 [4].
For `CN1CCC(CNc2ccc3ncc(-c4cccc(OC(F)(F)F)c4)n3n2)CC1` [SGI-1776] (top concentration 46.0829 µM), in that order: 469, 493, 5.43% and 36.7%.
In the case of `CC(/C=C1\SC(=S)N(CC(=O)O)C1=O)=C\c1ccccc1` [Epalrestat] (top concentration 46.0829 µM), the results for the “area under the dose-response curve” value in the experiment on SB.mhdgc-1 [1] and in the experiment on SB.msgc-1 [2] were 499 and 565, respectively. Moreover, the viability in the experiment with SB.mhdgc-1 [3] is 84.9%; with SB.msgc-1 [4], 104%.
As to `CN1\C(=C(O)/C2=C(C=C(Cl)S2)[S+]1([O-])=O)C(=O)NC3=NC=CC=C3` [Lornoxicam] (top concentration 46.0829 µM), the “area under the dose-response curve” value with SB.mhdgc-1 [1] worked out at 490; in the experiment with SB.msgc-1 [2] it was 454. For the same molecule, the values for the viability in the experiment on SB.mhdgc-1 [3] and with SB.msgc-1 [4] were 55.5% and 33.4%, respectively.
As for `c1nc2c(NC3CCCCC3)nc(Nc3ccc(N4CCOCC4)cc3)nc2[nH]1` [Reversine] (top concentration 46.0829 µM), the “area under the dose-response curve” value in the experiment on SB.mhdgc-1 [1] amounted to 499; in the experiment with SB.msgc-1 [2], 538. Further, the viability with SB.mhdgc-1 [3] is 5.27%; with SB.msgc-1 [4], 15.7%.
In the case of `Cc1nc(N)sc1-c1ccnc(Nc2ccc(N3CCOCC3)cc2)n1` [CYC-116] (top concentration 46.0829 µM), the results for the “area under the dose-response curve” value in the experiment with SB.mhdgc-1 [1] and with SB.msgc-1 [2] were 486 and 497, respectively. The viability with SB.mhdgc-1 [3] was 58.5%; in the experiment with SB.msgc-1 [4] it was 42.6%.
Turning to `NCC1(CC(=O)O)CCCCC1` [Gabapentin] (top concentration 46.0829 µM), the “area under the dose-response curve” value worked out at 555 in the experiment on SB.mhdgc-1 [1] and 509 in the experiment on SB.msgc-1 [2]. Further, the viability worked out at 121% in the experiment on SB.mhdgc-1 [3] and 109% with SB.msgc-1 [4].
Consider `CCC(CCCC)COC(=O)C(\C#N)=C(\c1ccccc1)c2ccccc2` (stereo unspecified) [Octocrylene] (top concentration 46.0829 µM), for which the figures for the “area under the dose-response curve” value in the experiment on SB.mhdgc-1 [1] and in the experiment with SB.msgc-1 [2] were 453 and 436, respectively. The figures for the viability in the experiment on SB.mhdgc-1 [3] and with SB.msgc-1 [4] were 9.42% and 34.9%, respectively.
Turning to `CC(C)CC(=O)Nc1n[nH]c2c1CN(C(=O)C1CCN(C)CC1)C2(C)C` (top concentration 46.0829 µM), the “area under the dose-response curve” value was determined as 329 in the experiment with SB.mhdgc-1 [1] and 390 in the experiment with SB.msgc-1 [2]. The viability in the experiment on SB.mhdgc-1 [3] came to 73.2%; in the experiment on SB.msgc-1 [4], 43.2%.
